# Experimental data published in PubChem BioAssay (NCI).
# Several values for one entry are separate records, joined by “and”; a condition that tells them apart may be missing. Equal entries are not always repeated.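 Assay format: 96-well plates, 48-hour exposure. GI50 marks 50% less growth. The concentration for full growth arrest is given as TGI.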
# Tests used:
# Test in all cases: inhibition of tumour cell growth, NCI panel, 48 h
# A498 renal = system: A498 renal
# DU-145 prostate = system: DU-145 prostate
# HCT-116 colon = system: HCT-116 colon
# HOP-92 NSCLC = system: HOP-92 NSCLC
# K-562 leukemia = system: K-562 leukemia
# MALME-3M melanoma = system: MALME-3M melanoma
# MOLT-4 leukemia = system: MOLT-4 leukemia
# OVCAR-3 ovarian = system: OVCAR-3 ovarian
# SK-MEL-28 melanoma = system: SK-MEL-28 melanoma
# UACC-257 melanoma = system: UACC-257 melanoma
Compound,TGI (A498 renal),TGI (DU-145 prostate),TGI (HCT-116 colon),TGI (HOP-92 NSCLC),TGI (K-562 leukemia),TGI (MALME-3M melanoma),TGI (MOLT-4 leukemia),TGI (OVCAR-3 ovarian),TGI (SK-MEL-28 melanoma),TGI (UACC-257 melanoma),GI50 (A498 renal),GI50 (DU-145 prostate),GI50 (HCT-116 colon),GI50 (HOP-92 NSCLC),GI50 (K-562 leukemia),GI50 (MALME-3M melanoma),GI50 (MOLT-4 leukemia),GI50 (OVCAR-3 ovarian),GI50 (SK-MEL-28 melanoma),GI50 (UACC-257 melanoma)
CC(=O)NNc1nc(C)c(C(=O)NNC(=O)C(=O)Nc2nc3ccc([N+](=O)[O-])cc3s2)s1,> 70.8 µM,> 100 µM,> 100 µM,> 100 µM,> 70.6 µM,> 100 µM,> 100 µM,76.4 µM,> 100 µM,> 100 µM,–,–,–,–,–,–,–,–,–,–
OC(c1ccc(Br)cc1)(c1cccs1)C1CC1 (centres undefined),45.2 µM,81.6 µM,33.3 µM,37.7 µM,> 100 µM,41.5 µM,67 µM,35.9 µM,51.3 µM,71.3 µM,–,–,–,–,–,–,–,–,–,–
NC(=O)C1(N2CCCCC2)CCN(CCCC(=O)c2ccc(F)cc2)CC1,11.4 µM,> 25.6 µM,> 100 µM,51.4 µM,> 100 µM,> 100 µM,> 81.6 µM,1.58 µM,> 100 µM,> 100 µM,2.72 µM,2.83 µM,0.777 µM,0.17 µM,0.28 µM,0.264 µM,1.16 µM,0.117 µM,1.08 µM,–
OC(CN1CC1)C(O)CN1CC1 (centres undefined),> 50 µg/mL,> 50 µg/mL,> 50 µg/mL,> 50 µg/mL,> 50 µg/mL,> 50 µg/mL,> 50 µg/mL,> 50 µg/mL,> 50 µg/mL,> 50 µg/mL,> 50 µg/mL,> 50 µg/mL,> 50 µg/mL,> 50 µg/mL,> 50 µg/mL,> 50 µg/mL,> 50 µg/mL,> 50 µg/mL,> 50 µg/mL,> 50 µg/mL
O=C(c1ccc2ccccc2c1)c1c(C(F)(F)F)n([O-])c2ccc(Cl)cc2[n+]1=O,3.11 µM,2.79 µM,2.33 µM,2.03 µM,2.65 µM,3.2 µM,–,2.62 µM,3.02 µM,3.13 µM,1.72 µM,1.47 µM,1 µM,0.518 µM,1.22 µM,1.59 µM,–,1.32 µM,1.63 µM,1.68 µM
C=CCSc1nc2ccccc2c(=O)n1Cc1ccco1,> 100 µM,> 100 µM,> 100 µM,> 100 µM,> 100 µM,> 100 µM,–,> 100 µM,> 100 µM,> 100 µM,–,–,–,–,–,–,–,–,–,–
COCCOCCOCc1n(Cc2ccc3ccccc3n2)c2ccccc2[n+]1Cc1ccc2ccccc2c1,2.83 µM,12.6 µM,2.06 µM,0.718 µM,1.7 µM,0.9 µM,2.52 µM,1.52 µM,1.88 µM,0.877 µM,0.627 µM,0.593 µM,0.402 µM,0.207 µM,0.291 µM,0.275 µM,0.47 µM,0.358 µM,0.484 µM,0.293 µM
Cn1c([N+](=O)[O-])cnc1/C=C1\Oc2cc(Cl)ccc2C1=O,9.97 µM,4.51 µM,0.806 µM,5.14 µM,21 µM,4.13 µM,2.32 µM,2.31 µM,3.82 µM,4.99 µM,1.95 µM,0.413 µM,0.201 µM,1.32 µM,1.36 µM,0.837 µM,0.212 µM,0.441 µM,0.721 µM,0.997 µM
O=S1(=O)NCCCN1CCNc1nccc(-c2c(-c3cccc(O)c3)nc3sccn23)n1,45.9 µM,> 100 µM,38.4 µM,> 93.5 µM,> 100 µM,3.26 µM,> 77.6 µM,> 100 µM,> 100 µM,> 100 µM,15.5 µM,15.9 µM,5.26 µM,27.3 µM,21.6 µM,0.108 µM,22.9 µM,19.4 µM,0.245 µM,2.99 µM
C[C@H]1[C@H](C)CC[C@]2(C(=O)NCCNCCN)CC[C@]3(C)C(=CC[C@@H]4[C@@]5(C)CCC(=O)C(C)(C)[C@@H]5CC[C@]43C)[C@H]12,27.2 µM,3.35 µM,3.18 µM,4.82 µM,5.35 µM,3.06 µM,4.73 µM,3.3 µM,3.02 µM,3.89 µM,11.8 µM,1.8 µM,1.71 µM,1.73 µM,2.23 µM,1.64 µM,2.2 µM,1.8 µM,1.65 µM,1.84 µM
CCCCCCCCCCCCCCCCCCNC(=O)[C@H]1CSC(c2cccs2)N1 (some centres undefined),> 50 µM,> 50 µM,1.8 µM,14.2 µM,2.14 µM,2.01 µM,15.7 µM,3.97 µM,1.43 µM,3.12 µM,> 50 µM,2.91 µM,0.945 µM,2.38 µM,0.761 µM,0.988 µM,0.974 µM,1.48 µM,0.725 µM,1.25 µM
O=C(/C=C/c1ccccc1)CC(c1ccccc1)N1CCOCC1 (centres undefined),26.2 µM,10.9 µM,2.37 µM,18.3 µM,21.8 µM,19.9 µM,9.87 µM,11.6 µM,30 µM,18.8 µM,12.9 µM,3.49 µM,1.15 µM,3.59 µM,3.4 µM,4.4 µM,3.12 µM,3.71 µM,13.8 µM,5.63 µM
CCC(=C(c1ccc(OCCCN(C)C)cc1)c1ccc(OCCCN(C)C)cc1)c1ccc(Cl)cc1,4.39 µM,3.16 µM,1.15 µM,3.42 µM,0.78 µM,0.973 µM,0.948 µM,1.08 µM,0.652 µM,2.24 µM,1.7 µM,1.01 µM,0.447 µM,0.945 µM,0.324 µM,0.36 µM,0.379 µM,0.429 µM,0.324 µM,0.883 µM
C[C@H](Cn1ncnn1)Nc1ncc2cc(Oc3ccc(F)cc3F)c(=O)n(C)c2n1,> 25 µM,> 25 µM,> 25 µM,> 25 µM,> 25 µM,> 25 µM,> 25 µM,> 25 µM,> 25 µM,> 25 µM,> 25 µM,> 25 µM,> 25 µM,3.96 µM,> 25 µM,> 25 µM,> 25 µM,> 25 µM,> 25 µM,> 25 µM
c1ccc2nc3c(cc4ccccn43)nc2c1,> 100 µM,> 100 µM,> 100 µM,> 100 µM,> 100 µM,–,> 100 µM,> 100 µM,> 100 µM,> 100 µM,31.4 µM,> 100 µM,23.5 µM,30.9 µM,> 100 µM,–,53.1 µM,> 100 µM,> 100 µM,> 100 µM
COc1ccc(CC(C)C(C)Cc2ccc(OC)c(OC)c2)cc1OC (centres undefined),> 1400 µM,> 1400 µM,> 1400 µM,> 1400 µM,> 1400 µM,> 1400 µM,> 1400 µM,> 1400 µM,> 1400 µM,> 1400 µM,> 1400 µM,> 1400 µM,1280 µM,235 µM,> 1400 µM,> 1400 µM,> 1400 µM,> 1400 µM,> 1400 µM,80.7 µM
NC(=O)c1cccc(Nc2nccc(Nc3cccc(F)c3)n2)c1,16 µM,> 25 µM,> 25 µM,18.1 µM,> 25 µM,> 25 µM,> 25 µM,> 25 µM,> 25 µM,> 25 µM,4.3 µM,8.1 µM,9.1 µM,2.66 µM,8.13 µM,10.3 µM,13.1 µM,10 µM,8.71 µM,12.2 µM
COc1ccccc1/C=C/C(=O)/C=C/c1ccccc1O,3.32 µM,2.63 µM,0.379 µM,6.08 µM,–,5.98 µM,–,1 µM,3.72 µM,3.63 µM,1.8 µM,1.02 µM,0.174 µM,1.78 µM,0.441 µM,1.82 µM,0.163 µM,0.314 µM,1.56 µM,1.71 µM
Cc1cc(Nc2nc(SCc3ccc(C(=O)Nc4ccc(F)cc4N)cc3)nn3cccc23)n[nH]1,5.61 µM,> 100 µM,20.4 µM,24.3 µM,> 100 µM,25.7 µM,13.5 µM,49.1 µM,51.8 µM,32.4 µM,0.623 µM,0.461 µM,0.494 µM,3.68 µM,0.0487 µM,1.83 µM,0.508 µM,0.202 µM,2.83 µM,3.69 µM
CCCCCCCCCCN=C(c1ccc(N(C)C)cc1)c1ccc(N(C)C)cc1,6.33 µM,> 83 µM,32.9 µM,26.5 µM,> 100 µM,65.8 µM,30.8 µM,> 24.9 µM,> 100 µM,66.2 µM,0.457 µM,2.42 µM,0.423 µM,1.92 µM,0.207 µM,16.6 µM,0.416 µM,0.428 µM,7.39 µM,16.5 µM
CC1(C)CC[C@H](C2=CC(=O)c3c(O)ccc(O)c3C2=O)O1,13.6 µM and 6.05 µM and 3.58 µM,6.28 µM and 4.38 µM,2.57 µM and 1.3 µM and 0.579 µM,3.39 µM and 2.5 µM and 0.725 µM,–,2.76 µM and 2.53 µM and 0.471 µM,–,4.87 µM and 3.02 µM and 1.61 µM,5.43 µM and 2.15 µM and 1.16 µM,4.77 µM and 2.67 µM and 1.08 µM,6.81 µM and 2.57 µM and 1.71 µM,–,1.08 µM and 0.344 µM and 0.205 µM,1.75 µM and 1.14 µM and 0.263 µM,–,1.15 µM and 1.26 µM and 0.201 µM,0.487 µM and 0.16 µM and 0.137 µM,2.23 µM and 1.64 µM and 0.669 µM,2.17 µM and 0.979 µM and 0.571 µM,1.99 µM and 1.38 µM and 0.391 µM
CCOC1Oc2ccccc2-c2oc(=O)c(Sc3ccc(C)cc3)cc21 (centres undefined),> 100 µM,> 100 µM,–,48.4 µM,> 100 µM,91.6 µM,28.3 µM,> 100 µM,> 100 µM,45.8 µM,34.4 µM,31.8 µM,–,10.8 µM,15.4 µM,24.6 µM,6.73 µM,18.1 µM,84.2 µM,11.8 µM
CC(=O)N[C@H](C(=O)N[C@@H](CCCNC(=N)N)C(=O)N[C@@H](CCCCN)C(=O)N[C@@H](CCCNC(=N)N)C(=O)N[C@]1(C)CCCCCC/C=C\CCC[C@@](C)(C(=O)N[C@@H](CCCNC(=N)N)C(=O)N[C@@H](CCC(=O)O)C(=O)N[C@@H](CC(C)C)C(=O)N[C@H](C(=O)N[C@@H](CCC(=O)O)C(N)=O)C(C)C)NC(=O)[C@H](CCC(N)=O)NC(=O)[C@H](CC(C)C)NC(=O)[C@H](CC(C)C)NC(=O)[C@H](CCCNC(=N)N)NC(=O)[C@H](CCCNC(=N)N)NC(=O)[C@H](CC(C)C)NC1=O)C(C)C,22.4 µM,7.44 µM,37.6 µM,8.43 µM,21.6 µM,2.72 µM,29.4 µM,19.2 µM,21.7 µM,–,9.32 µM,1.87 µM,12 µM,1.73 µM,5.42 µM,1.19 µM,8.1 µM,6.16 µM,2.64 µM,–
Cn1c(/C(C#N)=C/c2ccc3ccccc3c2)cc2ccccc21,0.552 µM,> 100 µM,> 100 µM,> 100 µM,> 100 µM,–,> 100 µM,–,> 100 µM,> 100 µM,0.0409 µM,0.456 µM,0.0774 µM,0.0395 µM,0.0455 µM,–,0.468 µM,–,16.6 µM,> 100 µM
CCC1=C[C@@H]2CN(C1)Cc1c([nH]c3ccccc13)[C@@](C(=O)OC)(c1cc3c(cc1OC)N(C)[C@H]1[C@@](O)(C(=O)OC)[C@H](OC(C)=O)[C@]4(CC)[C@@H]5C[C@@H]5CN5CC[C@]31[C@@H]54)C2,0.0112 µM and 0.0857 µM,–,5.18 µM and 13 µM,0.353 µM,–,1.29 µM,–,–,7.96 µM,7.53 µM and 15.6 µM,< 0.005 µM and 0.0144 µM,< 0.005 µM,< 0.005 µM,< 0.005 µM,< 0.005 µM,< 0.005 µM,< 0.005 µM,–,< 0.005 µM,–
c1ccc(Cn2cnc3ccc(-c4nc(-c5ccc6c(c5)ncn6C5CCCCC5)cn5ccnc45)cc32)cc1,3.57 µM,21 µM,–,2.62 µM,–,–,> 100 µM,5.8 µM,–,–,1.86 µM,3.04 µM,–,1.25 µM,–,–,1.67 µM,2.27 µM,–,–
